In paper PMC7982320 (Pharmacology Research & Perspectives, 2021):
“Also recorded” adds a separate entry of the source.

How the values were obtained:
Format in all cases: in vitro ADME
CYP2C8 = CYP2C8 (Homo sapiens, UniProt P10632); experiment: CYP inhibition in pooled human liver microsomes, paclitaxel probe; details: read-out: IC50, No preincubation; CYP2C8, pooled HLMs, n = 3
human MATE1 = target: T1, human MATE1 (Homo sapiens, UniProt Q96FL8); experiment: Uptake transporter substrate assay; details: MATE1 UPT; for Maximum fold accumulation over control: maximum seen at 1 µM and 2 min, n = 3
T1 sequence (Q96FL8 1-570): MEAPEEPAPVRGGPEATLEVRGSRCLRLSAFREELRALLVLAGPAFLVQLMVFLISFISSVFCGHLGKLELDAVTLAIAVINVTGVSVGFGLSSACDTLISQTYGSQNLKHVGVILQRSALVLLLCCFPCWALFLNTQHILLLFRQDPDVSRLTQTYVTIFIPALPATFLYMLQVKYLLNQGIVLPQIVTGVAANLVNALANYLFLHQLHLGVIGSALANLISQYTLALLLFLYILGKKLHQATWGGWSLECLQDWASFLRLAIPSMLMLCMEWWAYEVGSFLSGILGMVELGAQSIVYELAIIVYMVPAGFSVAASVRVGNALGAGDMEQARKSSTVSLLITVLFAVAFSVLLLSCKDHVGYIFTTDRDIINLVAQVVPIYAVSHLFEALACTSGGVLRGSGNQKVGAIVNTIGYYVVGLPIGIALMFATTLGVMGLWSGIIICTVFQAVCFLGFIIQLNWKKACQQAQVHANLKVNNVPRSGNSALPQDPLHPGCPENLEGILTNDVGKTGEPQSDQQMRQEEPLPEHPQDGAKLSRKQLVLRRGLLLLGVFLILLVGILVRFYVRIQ

human OAT3 = target: T2, human OAT3 (Homo sapiens, UniProt Q8TCC7); experiment: Transporter inhibition, uptake assay
T2 sequence (Q8TCC7 1-542): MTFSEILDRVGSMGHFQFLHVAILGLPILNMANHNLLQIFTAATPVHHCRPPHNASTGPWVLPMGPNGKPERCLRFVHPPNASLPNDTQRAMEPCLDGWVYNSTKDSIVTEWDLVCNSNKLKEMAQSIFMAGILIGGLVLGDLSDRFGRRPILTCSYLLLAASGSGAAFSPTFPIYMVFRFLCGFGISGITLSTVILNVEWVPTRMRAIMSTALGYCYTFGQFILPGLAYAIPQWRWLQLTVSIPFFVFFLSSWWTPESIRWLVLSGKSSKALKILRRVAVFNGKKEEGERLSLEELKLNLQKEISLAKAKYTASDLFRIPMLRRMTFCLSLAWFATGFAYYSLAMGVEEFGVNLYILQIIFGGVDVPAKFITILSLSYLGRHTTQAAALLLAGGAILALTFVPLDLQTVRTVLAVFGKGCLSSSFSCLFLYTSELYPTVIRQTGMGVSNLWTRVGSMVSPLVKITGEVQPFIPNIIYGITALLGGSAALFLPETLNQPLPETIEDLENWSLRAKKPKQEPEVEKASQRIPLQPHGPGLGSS

human MDR1 = human MDR1 (Homo sapiens, UniProt P08183); experiment: Transporter inhibition, vesicular transport assay
human OAT1 = target: T3, human OAT1 (Homo sapiens, UniProt Q4U2R8); experiment: Uptake transporter substrate assay; details: OAT1 UPT; for Maximum fold accumulation over control: maximum seen at 2.5 µM and 20 min, n = 3
T3 sequence (Q4U2R8 1-563): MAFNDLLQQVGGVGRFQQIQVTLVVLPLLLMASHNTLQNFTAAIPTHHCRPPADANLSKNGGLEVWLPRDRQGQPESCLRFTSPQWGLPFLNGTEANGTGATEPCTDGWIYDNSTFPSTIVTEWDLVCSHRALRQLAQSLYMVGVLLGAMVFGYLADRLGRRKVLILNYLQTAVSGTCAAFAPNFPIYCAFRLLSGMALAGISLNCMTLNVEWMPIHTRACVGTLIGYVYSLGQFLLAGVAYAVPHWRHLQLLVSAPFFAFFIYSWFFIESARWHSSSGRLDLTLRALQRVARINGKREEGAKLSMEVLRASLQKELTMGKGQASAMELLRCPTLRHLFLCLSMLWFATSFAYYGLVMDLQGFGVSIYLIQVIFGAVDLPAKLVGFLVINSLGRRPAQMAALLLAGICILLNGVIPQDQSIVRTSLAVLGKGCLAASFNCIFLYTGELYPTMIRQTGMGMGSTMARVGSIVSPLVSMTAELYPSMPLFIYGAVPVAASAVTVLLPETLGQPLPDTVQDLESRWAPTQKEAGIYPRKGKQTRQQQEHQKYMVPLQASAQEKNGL

human BCRP = target: T4, human BCRP (Homo sapiens, UniProt Q9UNQ0); experiment: Transporter substrate assay, MDCKII‐BCRP monolayer bidirectional transport; details: BCRP ML; for Maximum net ER: maximum seen at 2.5 µM, n = 3
T4 sequence (Q9UNQ0 1-655): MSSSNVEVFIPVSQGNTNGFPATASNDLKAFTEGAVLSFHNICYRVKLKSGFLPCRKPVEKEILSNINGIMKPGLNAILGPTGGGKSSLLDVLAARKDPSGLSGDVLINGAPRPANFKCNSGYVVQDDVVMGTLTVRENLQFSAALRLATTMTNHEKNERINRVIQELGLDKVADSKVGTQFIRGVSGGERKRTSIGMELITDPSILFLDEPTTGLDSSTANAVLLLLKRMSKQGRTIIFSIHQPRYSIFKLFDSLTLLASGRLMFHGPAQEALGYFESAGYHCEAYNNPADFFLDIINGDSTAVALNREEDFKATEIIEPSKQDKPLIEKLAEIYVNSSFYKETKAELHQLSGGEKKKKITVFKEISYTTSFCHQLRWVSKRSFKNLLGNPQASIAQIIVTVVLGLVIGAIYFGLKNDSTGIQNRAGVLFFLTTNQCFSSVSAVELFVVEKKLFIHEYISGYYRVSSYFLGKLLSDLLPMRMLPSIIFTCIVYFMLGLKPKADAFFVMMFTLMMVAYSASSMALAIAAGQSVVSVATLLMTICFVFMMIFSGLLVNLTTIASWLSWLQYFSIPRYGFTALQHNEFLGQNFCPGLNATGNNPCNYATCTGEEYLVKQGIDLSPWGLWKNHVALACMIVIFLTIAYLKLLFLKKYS

[1] = listed as 6β‐hydroxy‐21‐desacetyl deflazacort

Sequence of human MDR1 (P08183 whole entry): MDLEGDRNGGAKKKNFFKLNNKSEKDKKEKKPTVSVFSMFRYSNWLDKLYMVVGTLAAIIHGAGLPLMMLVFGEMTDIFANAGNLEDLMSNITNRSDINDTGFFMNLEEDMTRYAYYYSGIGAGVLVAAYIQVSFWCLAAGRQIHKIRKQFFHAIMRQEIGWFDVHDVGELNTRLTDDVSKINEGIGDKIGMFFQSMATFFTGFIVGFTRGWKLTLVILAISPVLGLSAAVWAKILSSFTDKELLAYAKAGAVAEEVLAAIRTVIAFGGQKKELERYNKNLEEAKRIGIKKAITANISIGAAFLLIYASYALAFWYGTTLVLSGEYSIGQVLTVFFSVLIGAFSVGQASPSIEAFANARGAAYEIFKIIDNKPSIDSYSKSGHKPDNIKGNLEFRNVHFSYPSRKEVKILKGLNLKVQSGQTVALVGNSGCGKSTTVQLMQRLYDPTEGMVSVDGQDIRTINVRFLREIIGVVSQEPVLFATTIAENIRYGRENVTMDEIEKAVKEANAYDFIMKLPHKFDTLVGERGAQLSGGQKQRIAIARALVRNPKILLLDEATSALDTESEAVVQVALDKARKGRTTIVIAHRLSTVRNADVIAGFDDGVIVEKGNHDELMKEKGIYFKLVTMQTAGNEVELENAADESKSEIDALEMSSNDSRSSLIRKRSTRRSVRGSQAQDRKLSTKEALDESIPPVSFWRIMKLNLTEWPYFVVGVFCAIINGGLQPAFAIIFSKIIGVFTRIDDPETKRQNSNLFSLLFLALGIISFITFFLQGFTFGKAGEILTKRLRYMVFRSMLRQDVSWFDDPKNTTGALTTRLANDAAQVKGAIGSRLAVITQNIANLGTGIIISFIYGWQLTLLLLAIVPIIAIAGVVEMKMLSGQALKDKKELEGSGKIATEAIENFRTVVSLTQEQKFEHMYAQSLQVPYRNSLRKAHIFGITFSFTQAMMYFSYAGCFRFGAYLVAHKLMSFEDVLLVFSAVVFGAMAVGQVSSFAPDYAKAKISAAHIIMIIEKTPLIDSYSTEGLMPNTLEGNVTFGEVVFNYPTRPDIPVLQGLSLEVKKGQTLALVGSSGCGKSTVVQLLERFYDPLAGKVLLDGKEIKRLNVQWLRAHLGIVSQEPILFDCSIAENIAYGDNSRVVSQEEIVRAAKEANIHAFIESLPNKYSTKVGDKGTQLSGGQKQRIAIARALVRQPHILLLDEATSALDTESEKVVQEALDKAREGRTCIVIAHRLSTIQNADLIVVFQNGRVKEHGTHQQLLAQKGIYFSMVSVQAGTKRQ
Sequence of CYP2C8 (P10632 whole entry): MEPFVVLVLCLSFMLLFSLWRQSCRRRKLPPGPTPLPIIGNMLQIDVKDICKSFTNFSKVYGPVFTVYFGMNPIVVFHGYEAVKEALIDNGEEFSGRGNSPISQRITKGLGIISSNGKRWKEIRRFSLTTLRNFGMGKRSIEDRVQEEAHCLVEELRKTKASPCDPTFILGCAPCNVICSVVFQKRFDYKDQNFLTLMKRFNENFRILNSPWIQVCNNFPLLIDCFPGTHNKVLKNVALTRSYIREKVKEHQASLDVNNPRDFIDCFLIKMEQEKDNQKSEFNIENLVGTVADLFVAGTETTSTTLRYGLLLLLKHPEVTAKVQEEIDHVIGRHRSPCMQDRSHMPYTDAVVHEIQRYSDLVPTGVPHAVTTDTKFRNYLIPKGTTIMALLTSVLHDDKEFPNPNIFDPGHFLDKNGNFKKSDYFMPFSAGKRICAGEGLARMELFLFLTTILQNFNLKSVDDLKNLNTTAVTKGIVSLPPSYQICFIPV

Compound	IC50 (CYP2C8) [µM]	Substrate potential (human MATE1)	Substrate potential (human MATE1; [1])	Maximum fold accumulation over control (human MATE1)	inhibitory interaction with transporter (human OAT3; OAT3, up to 50 µM)	Maximum inhibition at 50 µM (human OAT3; OAT3 UPT, n = 3)	estimated plasma Cmax/IC50 ratio (human MDR1; MDR1, Cmax 0.34 µM, assumed 100% free)	Maximum inhibition at 50 µM (human MDR1; MDR1 VT, n = 3)	Substrate potential (human OAT1)	Substrate potential (human OAT1; [1])	Maximum fold accumulation over control (human OAT1)	Substrate potential (human BCRP)	Substrate potential (human BCRP; [1])	Maximum net ER (human BCRP)
CC1=N[C@]2(C(=O)CO)[C@@H](C[C@H]3[C@@H]4C[C@@H](O)C5=CC(=O)C=C[C@]5(C)[C@H]4[C@@H](O)C[C@@]32C)O1 [6β‐OH‐21‐desDFZ, 6β‐Hydroxy‐21‐desacetyl deflazacort]	> 50	not a substrate	No	1.18 at 1 µM and 2 min fold	did not show interaction; also recorded: no inhibitory interaction	<20 % of control	0.017	78 % of control	not a substrate	No	1.15 at 2.5 µM and 20 min fold	not a substrate	No	0.17 at 2.5 µM
[2’-^14C]-6β-hydroxy-21-desacetyl-deflazacort [^14C‐6β‐OH‐21‐desDFZ]	–	–	–	< 2 fold	–	–	–	–	–	–	< 2 fold	–	–	0.17
